# In patent US6552053B2, “Controlling attention and memory by altering neuronal carbonic anhydrase activity” (The United States of America as represented by the …, priority 2000, dated 2003):
# Entries after “also recorded” stand apart in the source; their conditions may differ. Where a name gives a salt, the structure may show the parent alone.
# How the values were obtained:
# [1] = test system: hippocampal CA1 pyramidal cells; assay: Intracellular recording of CA1 pyramidal cells: membrane potential θ, discharge, input resistance; format: cell-based, rat
# Experimental: (§1) Hippocampal slice electrophysiology. CA1 field potentials were recorded with glass microelectrodes filled with an artificial cerebrospinal fluid solution (ACSF; see below). […] Whole slices were used unless otherwise indicated. […] Signals were amplified with AxoClamp-2B amplifier, digitized, stored, and analyzed using DigiData 1200 with P-Clamp6 software (Axon Instruments). Frequency and amplitude values of oscillation were taken from an average of five consecutive traces, all triggered at the same level of the same phase. Capacitance was optimally adjusted during discontinuous current-clamp mode before and after cell penetration to neutralize capacitance and reduce overshoot/undershoot errors. Discontinuous single-electrode voltage-clamp mode was used for voltage-clamping, employing a sampling rate of 3.0-5.0 kHz (30% duty cycle). Gain was usually set at 6-8 nA·mV^−1, slightly below the maximum value without causing overshoot or instability in the step response to a repetitive 10 mV step command. Bipolar stimulating electrodes (Teflon-insulated PtIr wire with 25 μm in diameter) were placed in s. pyramidale, within 200 μm, from the recording electrode, for stimulation of interneurons (50 μA, 50 μA) in the pyramidale layer. In some cases, the position of the stimulating electrodes was slightly varied within the CA1 cell layer to obtain monophasic postsynaptic responses. […] In some experiments, an additional stimulating electrode was placed in the stratum radiatum to stimulate the Schaffer collateral pathway (Sch). Experiments in which >20% variations in the evoked IPSP magnitudes occurred during the 10-min control period were discarded.
# [2] = test system: GABAergic inputs to hippocampal CA1 pyramidal cells; assay: Evoked GABAergic postsynaptic responses (IPSPs) of CA1 pyramidal cells; format: cell-based, rat
# Experimental: as §1
# [3] = test system: BAS-CA1 synapses of CA1 pyramidal cells; assay: BAS-CA1 postsynaptic potentials of CA1 pyramidal cells (Example 2); format: cell-based, rat; details: for effect of ACET itself on BAS-CA1 IPSPs / effect on CE action on the synaptic response: ACET 10 μM; for increase in evoked BAS-CA1 IPSPs: agent injected into the recorded pyramidal cell; for effect on CE action on BAS-CA1 PSP: agent injected into the recorded pyramidal cell before/with CE
# Experimental: Chemicals. Cloned CE (without the C-terminal P-loop) containing a His9 leader sequence was expressed in BL21 (DE3) Escherichia coli cells and purified by repeated affinity chromatography on Ni^2+-charged His-Bind columns (Novagen). […] Heat-inactivated proteins (100° C. for 5 min) were used as control.
# Electrophysiology. […] CA1 pyramidal cells were recorded intracellularly with sharp electrodes. Intracellular microelectrode recording rather than whole-cell clamp avoids immediate internal perfusion of the test proteins and agents into the cells and marked run-down of γ-aminobutyrate (GABA)-evoked currents. […] A bipolar stimulating electrode (Teflon-insulated PtIr wire 25 μm in diameter) was also placed in the stratum pyramidale, within 200 μm from the recording electrode, for stimulation of basket interneurons (BAS) (50 μA). In some experiments, an additional bipolar electrode was placed in the stratum radiatum to stimulate the Schaffer collateral pathway (SCH). CA1 neurons with stable resting membrane potential more negative than −70 mV were studied. […] Signals were amplified with AxoClamp-2B amplifier and digitized and stored by using a DigiData 1200 with the PCLAMP6 data collection and analysis software (Axon Instruments) and a Pentium PC computer. Experiments in which >20% variations in the evoked inhibitory postsynaptic potentials (IPSPs) during a 10 min control period occurred were discarded. Percent baseline PSP at each minute was calculated by dividing its value by baseline PSP then multiplying the result by 100. Baseline PSP was the mean of 10 min before treatments in each cell. A negative sign was added to indicate its inhibitory nature so that −100% is baseline IPSP and a positive value indicates an excitatory response. Differences were considered significant at P<0.05.
# [4] = rat, intraperitoneal dose; cited from earlier work
# [5] = Morris watermaze spatial memory task
# [6] = test system: hippocampal CA1 field potential; assay: CA1 field potential θ oscillation in hippocampal slices; format: cell-based, rat
# Experimental: as §1
# [7] = test system: SCH-CA1 excitatory postsynaptic potentials; assay: Schaffer collateral (SCH)-CA1 excitatory postsynaptic potentials; format: cell-based, rat
# Experimental: Hippocampal slice electrophysiology. CA1 field potentials were recorded with glass microelectrodes filled with an artificial cerebrospinal fluid solution (ACSF; see below). Male Sprague-Dawley rats ([…]) were decapitated, and the brains were removed and cooled rapidly in an ACSF solution (˜4° C.), bubbled continuously with 95% O2-5% CO2. Hippocampi were sliced ([…]), placed in oxygenated ACSF (in mM: 124 NaCl, 3 KCl; 1.3 MgSO4; 2.4 CaCl2; 26 NaHCO3; 1.25 NaH2PO4; and 10 glucose), and perfused (2 ml/min) with the oxygenated ACSF in an interface chamber at 30-31 ° C. Whole slices were used unless otherwise indicated. CA1 pyramidal cells were recorded intracellularly (Sun, M. -K., Nelson, T. J., Xu, H., and Alkon, D. L. Calexcitin transformation of GABAergic synapses: from excitation filter to amplifier. Proc. Natl. Acad. Sci. USA 96: 7023-7028, 1999, for cell labeling) with sharp electrodes (3M KAc; tip resistance: 60-120 M; to prevent “run-down” of GABAergic responses in whole-cell recordings due to wash out of intracellular factors). […] Signals were amplified with AxoClamp-2B amplifier, digitized, stored, and analyzed using DigiData 1200 with P-Clamp6 software (Axon Instruments). […]
# Electrophysiology. […] CA1 pyramidal cells were recorded intracellularly with sharp electrodes. […]
# [8] = test system: SCH-CA1 excitatory postsynaptic potentials; details: kynurenate 500 μM (Sun et al. 1999); cited from earlier work
# [9] = test system: RyR; details: cited from earlier work
# [10] = 30 min, listed as Acetazolamide
# [11] = CA3 and dentate gyrus dissected away
# [12] = kynurenate 500 μM, 20-30 min, CCH-induced θ
compound,measurement,setting,value
"CC(=O)Nc1nnc(S(N)(=O)=O)s1 [ACET, acetazolamide]",effect on calexcitin-induced intracellular θ activity,[1],did not induce; also recorded: prevented
same,induction of intracellular θ activity by CCH in presence of ACET,[1],nor intracellular θ activity (n=10; FIG. 4B3) was induced
same,evoked IPSP in the presence of ACET and CCH,"[2]; bath ACET 1 μM, CCH 50 μM",−7.7±1.0 mV
same,effect on CE-induced synaptic transformation,[3]; ACET 1 μM,eliminates
same,BAS-CA1 IPSPs 30 min after CE injection in the presence of ACET,"[3]; ACET 1 μM, 30 min, vs −100% control value",−99.2±3.5%
same,effect of ACET itself on BAS-CA1 IPSPs,[3]; 30 min,sufficient to transform the BAS-CA1 IPSPs
same,effect on CE action on the synaptic response,[3]; 30 min,abolishing effects of CE
same,effect of ACET itself on BAS-CA1 IPSPs,[3]; [10],sufficient to maintain IPSPs
same,effect on CE action on the synaptic response,[3]; [10],eliminating transformative effects of calexcitin
same,time to peak concentration in the blood,[4],≤ 1 h
same,reduction in escape latency during training trials vs saline group,"[5]; ACET 5 mg/0.5 ml/day ip (14-18 mg/kg), 65-70 min before first trial",strikingly smaller reduction
same,quadrant preference 24 h after last training trial,[5]; ACET 5 mg/0.5 ml/day ip during training,no preference to a particular quadrant
same,signs of discomfort or abnormal behaviors,[5]; during the experimental periods,no rats showed any apparent sign of discomfort or abnormal behaviors
same,memory retrieval: quadrant 4 preference vs saline control rats,"[5]; single ACET injection (5 mg/0.5 ml) 24 h after last training trial of trained rats, test 65-70 min later",no significant difference
"O=C(O)CN(CC(=O)O)c1ccccc1OCCOc1ccccc1N(CC(=O)O)CC(=O)O [BAPTA, 1,2-bis(2-aminophenoxy)ethane-N,N,N′,N′-tetraacetic acid]",increase in evoked BAS-CA1 IPSPs,[3],17.4%±3.9%
same,effect on CE action on BAS-CA1 PSP,[3],not induced; also recorded: blocking
"C[N+](C)(C)CCOC(N)=O [CCH, carbachol]",CCH-induced θ activity amplitude in CA1 minislices,[6]; [11],0.73±0.04 mV
same,CCH-induced θ activity frequency in CA1 minislices,[6]; [11],7.7±0.9 Hz
same,duration of θ field potential (post-CCH recording period),"[6]; CCH 50 μM, 20 min",~3 h
same,θ field potential peak amplitude,"[6]; CCH 50 μM, 20 min, bath applied, whole slices",0.75±0.03 mV
same,θ field potential frequency,"[6]; CCH 50 μM, 20 min, whole slices",7.8±0.8 Hz
same,input resistance when θ activity became evident,[1]; CCH,79.2±1.6 MΩ
same,θ oscillation of membrane potential (intracellular θ),[1]; CCH 50 μM,7.8±1.1 mV
same,averaged discharge rate,"[1]; CCH, 5-min observing period",2.7±0.3 spikes/s
same,GABAergic postsynaptic response after CCH,"[2]; 30 min after CCH application, pre-CCH membrane potential maintained",+5.1±0.4 mV
same,reversal potential of GABAergic postsynaptic responses,[2]; during CCH 50 μM,−68.4±2.8 mV
same,response of pyramidal cells to stimulation of GABAergic inputs,"[2]; in the presence of CCH, θ frequency stimulation",elicited instantly phase-locked firing of pyramidal cells
same,evoked GABAergic current after CCH (inward current),"[2]; voltage clamp, CCH 50 μM",0.19±0.05 nA
same,single-pulse SCH stimulation-evoked excitatory postsynaptic potential,[7]; CCH,not altered
"O=C(O)c1cc(=O)c2ccccc2[nH]1 [KYN, kynurenic acid]",θ oscillation frequency in presence of kynurenate,[6]; [12],did not change
same,θ oscillation magnitude in presence of kynurenate,[6]; [12],slightly reduced
same,effect on evoked IPSPs,[2]; kynurenate 500 μM,not altered
same,elimination of SCH-CA1 EPSPs,"[7]; KYN 500 μM, 20 min",> 90%
same,BAS-CA1 IPSP in the presence of KYN,[3]; KYN 500 μM,−8.1±0.4 mV
same,reversal potential of BAS-CA1 PSPs in the presence of KYN,[3]; KYN 500 μM,−78.9 mV
same,effect on evoked BAS-CA1 IPSPs,"[3]; KYN 500 μM, 20 min",does not alter
same,excitatory postsynaptic responses of CA1 pyramidal cells to SCH stimulation,[8],effectively abolished
"N.N.N.N.N.N.N.N.N.N.N.N.N.N.[Cl-].[Cl-].[Cl-].[Cl-].[Cl-].[Cl-].[O-2].[O-2].[Ru+3].[Ru+3].[Ru+4] [RR, ruthenium red]",increase in evoked BAS-CA1 IPSPs,[3],16.3%±4.0%
same,effect on CE action on BAS-CA1 PSP,[3],effectively blocked
same,IC50,[9],nanomolar range
CN1[C@@H]2CC[C@H]1C[C@@H](OC(=O)C(CO)c1ccccc1)C2 (stereo partly drawn) [atropine sulfate],effect on CCH-induced θ field activity,[6],blocked
NS(=O)(=O)c1nnc(NS(=O)(=O)c2ccccc2)s1 [benzolamide],effect on CCH-induced reversed GABAergic responses,[2]; intracellular application of benzolamide (0.1 mM in electrode),prevented
